From patent US20150284342A1, “BIS(FLUOROALKYL)-1,4-BENZODIAZEPINONE COMPOUNDS” (BRISTOL-MYERS SQUIBB COMPANY, priority 2011, published 2015)
Like-named read-outs stand apart in the source and are kept apart here.

Columns and labels:
[1] = High Throughput (HT) Metabolic Stability Panel, human liver microsomes
Method: (§1) Each compound was tested in duplicate.

Notch 1 = test: Notch-CBF1 Transactivation Assay (Notch 1); type: cell-based
Description: (§2) Table 12 denotes respective DNA quantity for the transfections.
(§3) Duplicates were used for each sample.

[2] = High Throughput (HT) Metabolic Stability Panel, mouse liver microsomes
Method: as §1

Notch 3 = test: Notch-CBF1 Transactivation Assay (Notch 3); type: cell-based
Description: as §2, §3

[3] = 0.5 μM compound, human liver microsomes, 10 min incubation
[4] = read-out: Notch 1 (IC50), HeLa cells, luciferase, rounded to 2 digits
[5] = 0.5 μM compound, mouse liver microsomes, 10 min incubation
[6] = read-out: Notch 3 (IC50), HeLa cells, luciferase, rounded to 2 digits
[7] = HeLa cells, luciferase, rounded to 2 digits, read-out: Notch 1 (IC50)
[8] = HeLa cells, luciferase, rounded to 2 digits, read-out: Notch 3 (IC50)

Compound	0.5 μM HLM (% Remaining) [1, 3] [%]	IC50 (Notch 1; [4]) [nM]	0.5 μM MsLM (% Remaining) [2, 5] [%]	IC50 (Notch 3; [6]) [nM]	0.5 μM HLM (% Remaining) ([1]; human, microsomes, 10 min, 0.5 µM, pH 7.4) [%]	IC50 (Notch 1; [7]) [nM]	0.5 μM MsLM (% Remaining) ([2]; mouse, microsomes, 10 min, 0.5 µM, pH 7.4) [%]	IC50 (Notch 3; [8]) [nM]
CC(C)C[C@@H](C(=O)N[C@H]1N=C(c2ccccc2)c2ccccc2N(C)C1=O)[C@H](CCC(F)(F)F)C(N)=O [Comparative Compound 22, reference compound]	39	64	15	48				
C=CC[C@H](C(N)=O)[C@@H](CC(C)C)C(=O)N[C@H]1N=C(c2ccccc2)c2cc(Cl)ccc2N(C)C1=O [Comparative Compound 23, reference compound]	19		9.0					
CCCC[C@H](C(N)=O)[C@@H](CC(C)C)C(=O)N[C@H]1N=C(c2ccc(Cl)cc2)c2ccccc2N(C)C1=O [Comparative Compound 24, reference compound]	21		13					
C=CC[C@H](C(N)=O)[C@@H](CC(C)C)C(=O)N[C@H]1N=C(c2ccccc2)c2ccccc2N(CCC)C1=O [Comparative Compound 25, reference compound]	2.7		0.18					
CN1C(=O)[C@@H](NC(=O)[C@H](CC(F)(F)F)[C@H](CCC(F)(F)F)C(N)=O)N=C(c2ccccc2)c2ccccc21 [Example 3, (2R,3S)—N-((3S)-1-Methyl-2-oxo-5-phenyl-2,3-dihydro-1H-1,4-benzodiazepin-3-yl)-2-(2,2,2-trifluoroethyl)-3-(3,3,3-trifluoropropyl)succinamide]	84	3.1	91	4.7				
CN1C(=O)[C@@H](NC(=O)[C@H](CCC(F)(F)F)[C@H](CC(F)(F)F)C(N)=O)N=C(c2ccccc2)c2ccccc21 [Example 4, (2R,3S)—N-((3S)-1-Methyl-2-oxo-5-phenyl-2,3-dihydro-1H-1,4-benzodiazepin-3-yl)-3-(2,2,2-trifluoroethyl)-2-(3,3,3-trifluoropropyl)succinamide]	100	1.5	91	2.5				
[2H]C([2H])([2H])N1C(=O)[C@@H](NC(=O)[C@H](CCC(F)(F)F)[C@H](CCC(F)(F)F)C(N)=O)N=C(c2ccccc2)c2ccccc21 [Example 5, (2R,3S)—N-((3S)-1-(^2H3)Methyl-2-oxo-5-phenyl-2,3-dihydro-1H-1,4-benzodiazepin-3-yl)-2,3-bis(3,3,3-trifluoropropyl)succinamide]					100	1.2	98	5.9
CN1C(=O)[C@@H](NC(=O)[C@H](CCC(F)(F)F)[C@H](CCC(F)(F)F)C(N)=O)N=C(c2ccccc2)c2cc(Cl)ccc21 [Example 6, (2R,3S)—N-((3S)-7-chloro-1-methyl-2-oxo-5-phenyl-2,3-dihydro-1H-1,4-benzodiazepin-3-yl)-2,3-bis(3,3,3-trifluoropropyl)succinamide]	100	6.5	100	10				
COc1ccc2c(c1)N(C)C(=O)[C@@H](NC(=O)[C@H](CCC(F)(F)F)[C@H](CCC(F)(F)F)C(N)=O)N=C2c1ccccc1 [Example 7, (2R,3S)—N-((3S)-8-methoxy-1-methyl-2-oxo-5-phenyl-2,3-dihydro-1H-1,4-benzodiazepin-3-yl)-2,3-bis(3,3,3-trifluoropropyl)succinamide]	93		72			1.5		2.8
CN1C(=O)[C@@H](NC(=O)[C@H](CCC(F)(F)F)[C@H](CCC(F)(F)F)C(N)=O)N=C(c2ccccc2)c2ccc(F)cc21 [Example 8, (2R,3S)—N-((3S)-8-fluoro-1-methyl-2-oxo-5-phenyl-2,3-dihydro-1H-1,4-benzodiazepin-3-yl)-2,3-bis(3,3,3-trifluoropropyl)succinamide]	96	4.9	100	8.1				
COc1ccc2c(c1)C(c1ccccc1)=N[C@H](NC(=O)[C@H](CCC(F)(F)F)[C@H](CCC(F)(F)F)C(N)=O)C(=O)N2C [Example 9, (2R,3S)—N-((3S)-7-methoxy-1-methyl-2-oxo-5-phenyl-2,3-dihydro-1H-1,4-benzodiazepin-3-yl)-2,3-bis(3,3,3-trifluoropropyl)succinamide]	100	4.4	87	8.2				
CN1C(=O)[C@@H](NC(=O)[C@H](CCC(F)(F)F)[C@H](CCC(F)(F)F)C(N)=O)N=C(c2ccccc2)c2cc(F)ccc21 [Example 10, (2R,3S)—N-((3S)-7-fluoro-1-methyl-2-oxo-5-phenyl-2,3-dihydro-1H-1,4-benzodiazepin-3-yl)-2,3-bis(3,3,3-trifluoropropyl)succinamide]	96	2.9	98	4.6				
CN1C(=O)[C@@H](NC(=O)[C@H](CCC(F)(F)F)[C@H](CCC(F)(F)F)C(N)=O)N=C(c2ccccc2)c2ccc(Cl)cc21 [Example 11, (2R,3S)—N-((3S)-8-chloro-1-methyl-2-oxo-5-phenyl-2,3-dihydro-1H-1,4-benzodiazepin-3-yl)-2,3-bis(3,3,3-trifluoropropyl)succinamide]	97	1.3	98	2				
COc1cccc2c1NC(=O)[C@@H](NC(=O)[C@H](CCC(F)(F)F)[C@H](CCC(F)(F)F)C(N)=O)N=C2c1ccccc1 [Example 12, (2R,3S)—N-((3S)-9-methoxy-2-oxo-5-phenyl-2,3-dihydro-1H-1,4-benzodiazepin-3-yl)-2,3-bis(3,3,3-trifluoropropyl)succinamide]	100	2.5	100	4.2				
COc1ccc2c(c1)NC(=O)[C@@H](NC(=O)[C@H](CCC(F)(F)F)[C@H](CCC(F)(F)F)C(N)=O)N=C2c1ccccc1 [Example 13, (2R,3S)—N-((3S)-8-methoxy-2-oxo-5-phenyl-2,3-dihydro-1H-1,4-benzodiazepin-3-yl)-2,3-bis(3,3,3-trifluoropropyl)succinamide]	100		97			2.1		3.8
COc1ccc2c(c1)C(c1ccccc1)=N[C@H](NC(=O)[C@H](CCC(F)(F)F)[C@H](CCC(F)(F)F)C(N)=O)C(=O)N2 [Example 14, (2R,3S)—N-((3S)-7-methoxy-2-oxo-5-phenyl-2,3-dihydro-1H-1,4-benzodiazepin-3-yl)-2,3-bis(3,3,3-trifluoropropyl)succinamide]	100		95			5.2		13
COc1c(C#N)ccc2c1NC(=O)[C@@H](NC(=O)[C@H](CCC(F)(F)F)[C@H](CCC(F)(F)F)C(N)=O)N=C2c1ccccc1 [Example 15, (2R,3S)—N-((3S)-8-cyano-9-methoxy-2-oxo-5-phenyl-2,3-dihydro-1H-1,4-benzodiazepin-3-yl)-2,3-bis(3,3,3-trifluoropropyl)succinamide]	100	12	93	16				
